Results on 3 molecules are retold here after patent US12239643B2, “Therapeutic agent for inflammatory diseases, autoimmune diseases, fibrotic diseases, and cancer diseases” (MEIJI SEIKA PHARMA CO., LTD., priority 2018, dated 2025).

Type in all cases: cell-based
The subject of test [1] is IL-5. The test can be described thus: Cytokine suppression using whole human blood: IL-5 (CytoStim and CD28 antibody stimulus). The note with it: read-out: IL-5 Inhibitory Activity, Human Whole Blood (Test Example 3). Here is the method: The test compound dissolved in dimethyl sulfoxide was added to a 96-well plate, and RPMI-1640 medium and human peripheral blood containing sodium heparin were added, followed by culture at 37° C. under 5% CO2 for 1 hour. A medium containing only dimethyl sulfoxide instead of the test compound was added to the control well. […]
After collecting the culture supernatant after culturing, the amount of each cytokine was measured by the sandwich ELISA method. […]
The measurement results obtained by measuring the TNFα inhibitory activity and IL-5 inhibitory activity (50% inhibitory concentration) of the test compounds by the above method were evaluated in accordance with the following evaluated basis; A: less than 100 nM, B: 100 nM or more and less than 500 nM, and C: 500 nM or more. In addition, the measurement results obtained by measuring the IL-17A inhibitory activity and IL-4 inhibitory activity (50% inhibitory concentration) of the test compounds were evaluated in accordance with the following evaluated basis; A: less than 500 nM, B: 500 nM or more and less than 5000 nM, and C: 5000 nM or more.

The test system of another test is TNFα. Nature of the test: Cytokine suppression using human peripheral blood mononuclear cells: TNFα. The note with it: read-out: TNFα Inhibitory Activity, Human PBMC (Test Example 4). Here is the method:
First, peripheral blood mononuclear cells (PBMC) were separated from whole blood by specific gravity centrifugation. Then, the isolated peripheral blood mononuclear cells were added to RPMI-1640 medium (containing 10% fetal bovine serum, penicillin, streptomycin, L-glutamine, and 2-mercaptoethanol), and cultured in a 96-well plate at 37° C. under 5% CO2 for 0 to 1 hour. The test compound dissolved in dimethyl sulfoxide was added to each well, followed by further culture at 37° C. under 5% CO2 for 1 hour. A medium containing only dimethyl sulfoxide instead of the test compound was added to the control well. To each well, lipopolysaccharide (final concentration 1 ng/mL) as a TNFα production stimulant and an IL-23 production stimulant, or concanavalin A (final concentration 20 μg/mL) as an IL-17A production stimulant was added, followed by culture at 37° C. under 5% CO2. In addition, as IL-4 production stimulus, IL-5 production stimulus, and IL-13 production stimulus, PBMC was seeded on a 96-well plate previously coated with a CD3 antibody (final concentration 3 μg/mL), and a CD28 antibody (final concentration 5 ng/mL) was added. The culture was carried out for about 18 hours for the evaluation of the amounts of TNFα and IL-23, and about 48 hours for the evaluation of the amounts of IL-17A, IL-4, IL-5, and IL-13. After collecting the culture supernatant after culturing, the amount of each cytokine was measured by the sandwich ELISA method in the same manner as in Test Example 3, and the cytokine production suppression rate (inhibition rate) and the cytokine inhibitory activity (concentration for the inhibition rate of 50%) of each test compound were calculated.
(§1) The measurement results obtained by measuring the TNFα inhibitory activity and IL-5 inhibitory activity (50% inhibitory concentration) of the test compounds by the above method were evaluated in accordance with the following evaluated basis; A: less than 10 nM, B: 10 nM or more and less than 100 nM, and C: 100 nM or more. In addition, the measurement results obtained by measuring the IL-17A inhibitory activity, IL-23 inhibitory activity, IL-4 inhibitory activity, and IL-13 inhibitory activity (50% inhibitory concentration) of the test compounds were evaluated in accordance with the following evaluated basis; A: less than 500 nM, B: 500 nM or more and less than 5000 nM, and C: 5000 nM or more.

Another test has as its system IL-4. The test can be described thus: Cytokine suppression using human peripheral blood mononuclear cells: IL-4. The note with it: human PBMC, CD3 antibody and CD28 antibody; read-out: IL-4 Inhibitory Activity, Human PBMC (Test Example 4). Here is the method:
(§2) First, peripheral blood mononuclear cells (PBMC) were separated from whole blood by specific gravity centrifugation. Then, the isolated peripheral blood mononuclear cells were added to RPMI-1640 medium (containing 10% fetal bovine serum, penicillin, streptomycin, L-glutamine, and 2-mercaptoethanol), and cultured in a 96-well plate at 37° C. under 5% CO2 for 0 to 1 hour. The test compound dissolved in dimethyl sulfoxide was added to each well, followed by further culture at 37° C. under 5% CO2 for 1 hour. A medium containing only dimethyl sulfoxide instead of the test compound was added to the control well. […]
as §1

The subject of test [2] is IL-5. The test can be described thus: Cytokine suppression using human peripheral blood mononuclear cells: IL-5. To be noted: human PBMC, CD3 antibody and CD28 antibody; read-out: IL-5 Inhibitory Activity, Human PBMC (Test Example 4). Here is the method: as §2, §1
For a further test, the system named is IL-13. The test can be described thus: Cytokine suppression using human peripheral blood mononuclear cells: IL-13. To be noted: human PBMC, CD3 antibody and CD28 antibody; read-out: IL-13 Inhibitory Activity, Human PBMC (Test Example 4). Here is the method:
as §2, §1

The test system of a further test is A549 (lung cancer). The test can be described thus: Antitumor activity: growth inhibition of A549. The note with it: Homo sapiens, 120 h; A549, culturing for 5 days; read-out: 50% growth inhibitory concentration. Here is the method:
(§3) As antitumor activity, 50% growth inhibitory concentration of various cancer cells (CEM-C1 (blood cancer (leukemia)), SU-DHL-4 (blood cancer (lymphoma)), A549 (lung cancer), HCT-116 (colorectal cancer), and Daoy (brain tumor)) was calculated as follows. First, each of the above cancer cells was seeded on a 384-well plate and cultured overnight at 37° C. under 5% CO2. After that, the test compound was added at various concentrations on the next day, and each number of cells was measured after culturing for 5 days. The 50% growth inhibitory concentration was defined as the test compound concentration at which the number of cells measured is an intermediate value between the number of cells after culture for 5 days under the same conditions without the addition of the test compound and the number of cells at the time of seeding (before the start of culture). The measurement results obtained by measuring the 50% growth inhibitory concentration of the test compound by the above method were evaluated in accordance with the following evaluated basis; A: less than 10 μM, B: 10 μM or more and less than 50 μM, and C: 50 μM or more. As a result of using apremilast as the test compound, the evaluation was C in all cancer cells. On the other hand, as a result of using the compound obtained in Example 248 as the test compound, the evaluation was A in all cancer cells.

For test [3], the system named is HCT-116 (colorectal cancer). Nature of the test: Antitumor activity: growth inhibition of HCT-116. To be noted: Homo sapiens, 120 h; HCT-116, culturing for 5 days; read-out: 50% growth inhibitory concentration. Here is the method: as §3
The test system of a further test is Daoy (brain tumor). Nature of the test: Antitumor activity: growth inhibition of Daoy. To be noted: Homo sapiens, 120 h, culturing for 5 days, read-out: 50% growth inhibitory concentration. Here is the method:
as §3

Setting [4] is: human PBMC, lipopolysaccharide 1 ng/mL.

Where two headings read alike, the source gives them in different places.

Consider `CC(C)(O)C(F)(F)Oc1ccc(-c2nccs2)c2oc(N3CC4CC(C3)N4)nc12` [Example 248, 1-((2-(3,6-Diazabicyclo[3.1.1]heptan-3-yl)-7-(thiazol-2-yl)benzo[d]oxazol-4-yl)oxy)-1,1-difluoro-2-methylpropan-2-ol], for which the IC50 with IL-5 [1] was under 500 nM; in the test on TNFα (setting [4]) it was under 10 nM; with IL-4, under 500 nM; in the test with IL-5 [2], under 10 nM; in the test on IL-13 it was under 500 nM; with A549 (lung cancer), under 10 µM. The IC50 (in test [3]; in the test on Daoy (brain tumor)) was under 10 µM in each case.
Regarding `CCOc1cc([C@@H](CS(C)(=O)=O)N2C(=O)c3cccc(NC(C)=O)c3C2=O)ccc1OC` [apremilast, reference compound], the IC50 is at least 5000 nM in the test with IL-5 [1]; 10 to 100 nM in the test with TNFα (Homo sapiens, PBMC); at least 5000 nM in the test with IL-4; over 100 nM in the test on IL-5 [2]; at least 5000 nM with IL-13; at least 50 µM in the test on A549 (lung cancer). Moreover, the IC50 (in test [3]; with Daoy (brain tumor)) was at least 50 µM each time.
Turning to `CC(O)C(F)(F)Oc1ccc(-c2nccs2)c2oc(N3CC4CC(C3)N4)nc12` (single isomer, unassigned) [Example 252, 1-((2-(3,6-Diazabicyclo[3.1.1]heptan-3-yl)-7-(thiazol-2-yl)benzo[d]oxazol-4-yl)oxy)-1,1-difluoropropan-2-ol], the IC50 in the test with TNFα (setting [4]) was under 10 nM.
